Results: US20060029654A1, “Analgesic patch for sports injury rehabilitation medicine and method to alleviate pain” (priority 2004, published 2006)

System: pain in the right shoulder and right lateral thigh (right rotator cuff tendonitis and right lateral fasciaitis)
Conditions: prior treatment history; injection into the pain trigger zone

## C[C@]12CCC(=O)C=C1CC[C@@H]1[C@@H]2C(=O)C[C@@]2(C)[C@H]1CC[C@]2(O)C(=O)CO [cortisone]
  duration of temporary pain relief: 4 to 6 weeks
